Measurements reported in publication PMC9369419 (International Journal of Molecular Sciences, 2022).

Legend:
GluK3 [1] = target: T1, GluK3 (Rattus norvegicus, UniProt P42264); details: at least; cited from earlier work
T1 construct: made in house; host or cells: Sf9 insect cells (membranes)

GluK1 = target: T2, GluK1 (Rattus norvegicus, UniProt P22756); experiment: Radioligand binding at recombinant homomeric GluK1 in Sf9 membranes; details: recombinant rat homomeric receptor, [3H]-(S)-NF608, mean ± SEM
T2 construct: made in house; host or cells: Sf9 insect cells (membranes)
Experimental: (§1) Ligand binding affinities at recombinant rat homomeric GluA2, GluK1−3, and GluK5 were determined as previously detailed. […] The filters were dried at 70 °C for 1 h, and 50 μL/well Microscint 20 (PerkinElmer, Waltham, MA, USA) was added. Radioactivity was detected with a TopCounter (PerkinElmer, Waltham, MA, USA). GluA2 and GluK5 assays were filtered on GF/C type filters using Millipore 12-well filtration manifolds (Merck Life Science, Søborg, Denmark) and washed twice with ice-cold assay buffer. Filters were placed in pony vials (PerkinElmer, Waltham, MA, USA), 3 mL of Ultima Gold scintillation fluid (PerkinElmer, Waltham, MA, USA) was added, and DPM (disintegrations per minute) were determined using a TriCarb 2900 scintillation counter (PerkinElmer, Waltham, MA, USA).
(§2) All competition curves (n ≥ 3 per ligand) were determined in triplicate. Data were analyzed using GraphPad Prism 6 (GraphPad Software, San Diego, CA, USA) to determine ligand affinity (Ki) and Hill coefficient (nH) using the one-site Ki and four-parameter logistics equations, respectively.

GluK2 = target: T3, GluK2 (Rattus norvegicus, UniProt P42260); experiment: Radioligand binding at recombinant homomeric GluK2 in Sf9 membranes; details: recombinant rat homomeric receptor, [3H]-kainic acid, mean ± SEM
T3 construct: made in house; host or cells: Sf9 insect cells (membranes)
Experimental: as §1, §2

GluK3 [2] = target: T1, GluK3; experiment: Radioligand binding at recombinant homomeric GluK3 in Sf9 membranes; details: recombinant rat homomeric receptor, [3H]-kainic acid, mean ± SEM
Experimental: as §1, §2

GluK5 = target: T4, GluK5 (Rattus norvegicus, UniProt Q63273); experiment: Radioligand binding at recombinant homomeric GluK5 in Sf9 membranes; details: recombinant rat homomeric receptor, [3H]-kainic acid, mean ± SEM
T4 construct: made in house; host or cells: Sf9 insect cells (membranes)
T4 sequence (Q63273 15-979): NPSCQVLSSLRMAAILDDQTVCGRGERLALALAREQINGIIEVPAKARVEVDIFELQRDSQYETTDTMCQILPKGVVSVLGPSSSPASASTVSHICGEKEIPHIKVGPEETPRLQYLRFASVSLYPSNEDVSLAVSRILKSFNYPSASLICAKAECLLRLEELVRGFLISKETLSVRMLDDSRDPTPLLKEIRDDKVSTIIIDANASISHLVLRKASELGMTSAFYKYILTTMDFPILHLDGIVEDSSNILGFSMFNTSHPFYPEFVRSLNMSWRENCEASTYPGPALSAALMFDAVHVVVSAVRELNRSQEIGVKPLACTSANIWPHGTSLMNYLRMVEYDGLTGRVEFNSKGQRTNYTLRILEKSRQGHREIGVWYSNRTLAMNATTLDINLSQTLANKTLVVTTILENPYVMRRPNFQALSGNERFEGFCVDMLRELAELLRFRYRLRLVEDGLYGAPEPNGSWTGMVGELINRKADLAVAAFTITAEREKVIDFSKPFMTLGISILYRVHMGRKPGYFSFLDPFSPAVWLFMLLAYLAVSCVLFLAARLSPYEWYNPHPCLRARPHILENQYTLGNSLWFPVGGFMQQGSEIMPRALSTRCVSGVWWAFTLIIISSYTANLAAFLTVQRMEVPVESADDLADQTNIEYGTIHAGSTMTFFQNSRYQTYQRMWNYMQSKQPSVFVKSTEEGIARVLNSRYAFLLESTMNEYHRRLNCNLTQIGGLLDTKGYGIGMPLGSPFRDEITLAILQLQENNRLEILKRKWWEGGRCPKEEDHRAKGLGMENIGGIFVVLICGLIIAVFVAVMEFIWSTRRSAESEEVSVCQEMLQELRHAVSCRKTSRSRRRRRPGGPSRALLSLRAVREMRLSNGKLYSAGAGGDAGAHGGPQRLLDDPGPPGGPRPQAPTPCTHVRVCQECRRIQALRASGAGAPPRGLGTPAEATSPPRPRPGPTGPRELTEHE
Experimental: as §1, §2

GluA2 = target: T5, GluA2 (Rattus norvegicus, UniProt P19491); experiment: Radioligand binding at recombinant homomeric GluA2 in Sf9 membranes; details: recombinant rat homomeric receptor, [3H]-(RS)-AMPA, mean ± SEM
T5 construct: made in house; host or cells: Sf9 insect cells (membranes)
Experimental: as §1, §2

GluK3a = target: T6, GluK3a (Rattus norvegicus, UniProt P42264); experiment: Intracellular Ca2+ imaging assay, HEK293 cells expressing GluK3a; assay type: cell-based; details: 100 µM KA + 300 µM BPAM344, Ca2+ fluorescence, read-out: IC50, antagonism of agonist-evoked responses at GluK3
T6 construct: expressed in transfected cells
From the text: For the determination of antagonistic activity of compounds at GluK1, GluK3 and GluA2 receptors, stable HEK293 cell lines expressing rat GluK1b(Q), GluK3a, and GluA2(Q)i were created. A polyclonal stable cell line expressing GluK3a was created as described previously. For the creation of polyclonal stable cell lines expressing GluK1and GluA2 receptors, cDNA encoding blasticidin-S deaminase (blas) enzymes were inserted into the pIRES plasmid vector (Clontech, Mountain View, CA, USA) to create the plasmid vector pRES(blas). Subsequently, cDNA for rat GluK1(Q)1b and the flip isoform of rat GluA2(Q)i were inserted into pRES(blas) to create the expression constructs GluK1b(Q)pIRES(blas) and GluA2i(Q)pIRES(blas), respectively. These were used to transfect GripTite^TM HEK293 cells followed by selecting with 20 µg/mL blasticidin (Invivogen, Toulouse, France) and 0.50 mg/mL geneticin in the presence of 20 µM of the AMPA receptor antagonist CNQX (Tocris, Bristol, UK) until stably transfected GluK1b(Q) and GluA2(Q)i cell lines were obtained. For functional assays, cells were plated into clear-bottomed, black 96-well fluorescence culture plates (Corning, Vordingborg, Denmark), and when >70% confluent, the cells were loaded with 2 μM Fluo 4-AM calcium sensitive dye (Abcam, Cambridge, UK) and used for the imaging of agonist-evoked changes in intracellular Ca^2+ using a FlexStation I plate reader (Molecular Devices, San Jose, CA, USA). […] Changes in dye fluorescence in response to the addition of an agonist solution were then measured at 538 nm using excitation at 485 nm and emission cut-off at 515 nm. Baseline fluorescence was measured for 16 s before the addition of 50 µL agonist solution to each well of the assay plate, and fluorescence was measured for 120 to 160 s after addition of the agonists. Peak change in fluorescence was calculated as the difference between the maximal observed increase in fluorescence and pre-agonist baseline fluorescence. The agonist solutions contained 100 µM KA together with 300 µM of the KAR positive allosteric modulator BPAM344 (Sigma-Aldrich Chemical, St. Louis, MO, USA) for GluK1 and GluK3 experiments or 100 µM glutamate together with 100 µM of the AMPAR positive allosteric modulator cyclothiazide for GluA2 experiments (HelloBio, Bristol, UK). Responses were determined in at least triplicate at each compound concentration.

T5 sequence (P19491 22-883): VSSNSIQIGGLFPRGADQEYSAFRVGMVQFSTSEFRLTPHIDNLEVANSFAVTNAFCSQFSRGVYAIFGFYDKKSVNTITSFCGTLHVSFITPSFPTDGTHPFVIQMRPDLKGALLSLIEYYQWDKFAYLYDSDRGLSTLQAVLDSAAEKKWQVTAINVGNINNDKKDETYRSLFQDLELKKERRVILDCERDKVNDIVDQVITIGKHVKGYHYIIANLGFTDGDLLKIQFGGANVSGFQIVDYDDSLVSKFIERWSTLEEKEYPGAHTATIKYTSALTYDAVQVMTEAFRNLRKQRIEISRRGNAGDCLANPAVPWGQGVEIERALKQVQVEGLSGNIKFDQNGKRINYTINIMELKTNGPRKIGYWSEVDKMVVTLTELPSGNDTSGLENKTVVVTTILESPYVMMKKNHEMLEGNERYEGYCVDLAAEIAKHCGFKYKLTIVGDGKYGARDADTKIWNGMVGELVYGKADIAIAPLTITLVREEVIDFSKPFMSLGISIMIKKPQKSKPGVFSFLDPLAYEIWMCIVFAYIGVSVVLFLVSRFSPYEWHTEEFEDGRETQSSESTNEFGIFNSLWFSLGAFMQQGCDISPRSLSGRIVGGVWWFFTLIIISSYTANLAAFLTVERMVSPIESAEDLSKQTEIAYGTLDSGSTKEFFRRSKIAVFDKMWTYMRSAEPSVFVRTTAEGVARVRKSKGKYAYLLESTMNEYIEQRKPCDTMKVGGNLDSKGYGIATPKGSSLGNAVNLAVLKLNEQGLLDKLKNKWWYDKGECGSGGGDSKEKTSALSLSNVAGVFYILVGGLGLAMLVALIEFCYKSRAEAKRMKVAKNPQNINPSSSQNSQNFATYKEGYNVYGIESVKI
T2 sequence (P22756 31-949): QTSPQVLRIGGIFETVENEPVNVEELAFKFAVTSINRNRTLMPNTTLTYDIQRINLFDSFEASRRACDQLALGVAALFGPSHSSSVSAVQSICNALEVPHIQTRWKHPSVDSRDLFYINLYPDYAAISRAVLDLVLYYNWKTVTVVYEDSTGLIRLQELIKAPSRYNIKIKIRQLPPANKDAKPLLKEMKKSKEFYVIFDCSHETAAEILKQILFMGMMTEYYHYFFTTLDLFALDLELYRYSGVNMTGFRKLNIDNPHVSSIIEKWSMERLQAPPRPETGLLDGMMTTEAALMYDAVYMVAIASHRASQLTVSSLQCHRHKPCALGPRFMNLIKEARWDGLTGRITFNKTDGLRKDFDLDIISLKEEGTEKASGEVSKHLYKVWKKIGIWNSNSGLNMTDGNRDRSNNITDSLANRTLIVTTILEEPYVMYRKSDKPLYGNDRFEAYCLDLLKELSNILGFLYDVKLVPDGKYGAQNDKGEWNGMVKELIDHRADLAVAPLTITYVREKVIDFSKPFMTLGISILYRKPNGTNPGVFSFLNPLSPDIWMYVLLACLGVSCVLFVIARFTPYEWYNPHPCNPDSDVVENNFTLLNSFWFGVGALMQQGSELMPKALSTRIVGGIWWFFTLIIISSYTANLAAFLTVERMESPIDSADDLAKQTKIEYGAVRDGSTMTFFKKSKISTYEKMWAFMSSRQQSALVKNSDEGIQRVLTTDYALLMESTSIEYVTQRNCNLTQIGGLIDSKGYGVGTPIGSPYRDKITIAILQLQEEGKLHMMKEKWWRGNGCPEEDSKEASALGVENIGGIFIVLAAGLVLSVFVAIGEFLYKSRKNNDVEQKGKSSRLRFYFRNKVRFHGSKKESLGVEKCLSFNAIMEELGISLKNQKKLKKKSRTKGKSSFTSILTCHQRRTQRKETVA
T3 sequence (P42260 32-908): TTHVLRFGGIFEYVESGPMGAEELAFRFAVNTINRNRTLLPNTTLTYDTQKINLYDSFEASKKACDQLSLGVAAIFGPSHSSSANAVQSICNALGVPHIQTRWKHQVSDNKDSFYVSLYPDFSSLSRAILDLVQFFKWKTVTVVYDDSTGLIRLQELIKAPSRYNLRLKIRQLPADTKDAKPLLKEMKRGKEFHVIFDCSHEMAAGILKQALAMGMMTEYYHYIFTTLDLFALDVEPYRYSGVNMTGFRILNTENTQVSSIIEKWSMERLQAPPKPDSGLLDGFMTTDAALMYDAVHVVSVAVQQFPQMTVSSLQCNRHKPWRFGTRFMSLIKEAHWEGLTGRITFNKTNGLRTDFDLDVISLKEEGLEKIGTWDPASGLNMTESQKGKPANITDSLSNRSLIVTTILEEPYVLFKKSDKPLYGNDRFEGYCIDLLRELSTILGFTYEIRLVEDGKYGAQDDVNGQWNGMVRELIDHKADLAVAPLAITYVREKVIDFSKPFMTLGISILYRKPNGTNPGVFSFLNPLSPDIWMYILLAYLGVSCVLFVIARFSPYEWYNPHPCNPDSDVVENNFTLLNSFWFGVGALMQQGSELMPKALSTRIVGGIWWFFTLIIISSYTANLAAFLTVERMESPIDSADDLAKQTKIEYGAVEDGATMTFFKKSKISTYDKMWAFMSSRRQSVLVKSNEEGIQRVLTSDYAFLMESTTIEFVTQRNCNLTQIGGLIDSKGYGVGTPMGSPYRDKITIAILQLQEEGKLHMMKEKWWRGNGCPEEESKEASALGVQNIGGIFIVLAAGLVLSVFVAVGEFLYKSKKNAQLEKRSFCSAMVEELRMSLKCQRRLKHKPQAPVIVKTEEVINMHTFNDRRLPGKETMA
T1 sequence (P42264 32-919): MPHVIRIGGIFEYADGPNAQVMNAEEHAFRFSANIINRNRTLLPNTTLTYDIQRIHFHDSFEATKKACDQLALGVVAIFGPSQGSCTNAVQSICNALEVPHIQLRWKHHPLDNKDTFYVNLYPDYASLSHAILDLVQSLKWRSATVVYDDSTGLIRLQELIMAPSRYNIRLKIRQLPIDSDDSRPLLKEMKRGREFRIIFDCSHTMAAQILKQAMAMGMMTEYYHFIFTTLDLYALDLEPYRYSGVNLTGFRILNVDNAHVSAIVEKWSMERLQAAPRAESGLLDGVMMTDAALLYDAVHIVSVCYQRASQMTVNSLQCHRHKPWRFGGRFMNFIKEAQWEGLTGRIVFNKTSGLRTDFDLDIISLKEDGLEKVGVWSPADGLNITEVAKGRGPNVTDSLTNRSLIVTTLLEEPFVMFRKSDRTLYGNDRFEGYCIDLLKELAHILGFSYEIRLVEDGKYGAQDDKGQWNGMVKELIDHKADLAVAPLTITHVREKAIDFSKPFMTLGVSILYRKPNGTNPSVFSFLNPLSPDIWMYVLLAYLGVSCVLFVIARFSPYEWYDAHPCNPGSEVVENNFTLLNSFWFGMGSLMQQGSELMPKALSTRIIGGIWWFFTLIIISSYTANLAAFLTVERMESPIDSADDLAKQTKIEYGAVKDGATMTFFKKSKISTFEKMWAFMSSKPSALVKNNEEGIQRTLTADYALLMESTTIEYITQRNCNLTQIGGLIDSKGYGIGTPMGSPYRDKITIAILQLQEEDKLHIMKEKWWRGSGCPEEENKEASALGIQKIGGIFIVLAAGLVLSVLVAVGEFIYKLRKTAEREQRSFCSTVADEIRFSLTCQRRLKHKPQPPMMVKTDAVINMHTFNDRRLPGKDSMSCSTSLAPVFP
T6 sequence (P42264 32-919): as above

Compound	binding preference at GluK3 over the GluK1, GluK2 and GluK5 subtypes (GluK3 [1])	Ki (GluK1)	Ki (GluK2)	Ki (GluK3 [2])	melting point	Ki (GluK5)	Ki (GluA2)	IC50 (GluK3a)
N[C@@H](Cc1c[nH]c(S)n1)C(=O)O [(S)-2-mercaptohistidine]	15–100 fold							
Cc1cccc(C#Cc2ccc3c(c2)[nH]c(=O)c(=O)n3NC(=O)c2ccccc2)c1 [Compound 5]		~100 µM	~100 µM	1.4 ± 0.4 µM	318 to 320 °C	> 100 µM	> 100 µM	
Cc1ccc(C#Cc2ccc3c(c2)[nH]c(=O)c(=O)n3NC(=O)c2ccccc2)cc1 [Compound 6]		≥ 100 µM		6.1 ± 0.8 µM	325 to 327 °C			
CCc1ccc(C#Cc2ccc3c(c2)[nH]c(=O)c(=O)n3NC(=O)c2ccccc2)cc1 [Compound 7]		> 100 µM	> 100 µM	20 ± 1 µM	308 to 310 °C	> 100 µM	> 100 µM	
CCCc1ccc(C#Cc2ccc3c(c2)[nH]c(=O)c(=O)n3NC(=O)c2ccccc2)cc1 [Compound 8]		> 100 µM	> 100 µM	50 ± 12 µM	305 to 306 °C	> 100 µM	> 100 µM	
CC(C)c1ccc(C#Cc2ccc3c(c2)[nH]c(=O)c(=O)n3NC(=O)c2ccccc2)cc1 [Compound 9]		> 100 µM	> 100 µM	38 ± 10 µM	263 to 264 °C	> 100 µM	> 100 µM	
O=C(Nn1c(=O)c(=O)[nH]c2cc(C#Cc3ccc(Cl)cc3)ccc21)c1ccccc1 [Compound 10]		> 100 µM	> 100 µM	3.5 ± 0.7 µM	326 to 327 °C	> 100 µM	> 100 µM	
O=C(Nn1c(=O)c(=O)[nH]c2cc(C#Cc3ccc(C(F)(F)F)cc3)ccc21)c1ccccc1 [Compound 11]		~100 µM	> 100 µM	> 100 µM		> 100 µM	> 100 µM	
COc1ccc(C#Cc2ccc3c(c2)[nH]c(=O)c(=O)n3NC(=O)c2ccccc2)cc1 [Compound 12]		> 100 µM	> 100 µM	8.3 ± 0.4 µM	304 to 305 °C	> 100 µM	> 100 µM	
O=C(Nn1c(=O)c(=O)[nH]c2cc(C#Cc3ccc(Oc4ccccc4)cc3)ccc21)c1ccccc1 [Compound 13]		≥ 100 µM		7.9 ± 0.7 µM	262 to 263 °C			
O=C(O)c1cccc(C#Cc2ccc3c(c2)[nH]c(=O)c(=O)n3NC(=O)c2ccccc2)c1 [Compound 14]		> 100 µM	> 100 µM	28 ± 2 µM	310 to 312 °C	> 100 µM	> 100 µM	
O=C(O)c1ccc(C#Cc2ccc3c(c2)[nH]c(=O)c(=O)n3NC(=O)c2ccccc2)cc1 [Compound 15]		> 100 µM	> 100 µM	31 ± 4 µM	348 to 349 °C	> 100 µM	> 100 µM	
NS(=O)(=O)c1ccc(C#Cc2ccc3c(c2)[nH]c(=O)c(=O)n3NC(=O)c2ccccc2)cc1 [Compound 16]		> 100 µM	> 100 µM	~100 µM	303 to 305 °C	> 100 µM	> 100 µM	
O=C(Nn1c(=O)c(=O)[nH]c2cc(-c3cc4ccccc4o3)ccc21)c1ccccc1 [Compound 18]		> 100 µM		14 ± 2 µM				
O=C(Nn1c(=O)c(=O)[nH]c2cc(C#Cc3cccc(O)c3)ccc21)c1ccccc1 [Compound 19]		> 100 µM	> 100 µM	3.2 ± 0.6 µM	313 to 314 °C	> 100 µM	~100 µM	
O=C(Nn1c(=O)c(=O)[nH]c2cc(C#Cc3ccc(CO)cc3)ccc21)c1ccccc1 [Compound 20]		~100 µM	> 100 µM	5.8 ± 1.5 µM	298 to 300 °C	> 100 µM	> 100 µM	
Nc1ccccc1C#Cc1ccc2c(c1)[nH]c(=O)c(=O)n2NC(=O)c1ccccc1 [Compound 21]		14 ± 2 µM		1 ± 0.1 µM	303 to 305 °C			
Nc1cccc(C#Cc2ccc3c(c2)[nH]c(=O)c(=O)n3NC(=O)c2ccccc2)c1 [Compound 22]		> 100 µM		~100 µM	274 to 275 °C			
Nc1ccc(C#Cc2ccc3c(c2)[nH]c(=O)c(=O)n3NC(=O)c2ccccc2)cc1 [Compound 23]		> 100 µM	> 100 µM	1.4 ± 0.2 µM	312 to 314 °C	> 100 µM	> 100 µM	
CN(C)c1ccc(C#Cc2ccc3c(c2)[nH]c(=O)c(=O)n3NC(=O)c2ccccc2)cc1 [Compound 24]		39 ± 4 µM		24 ± 4 µM	273 to 275 °C			
O=C(Nn1c(=O)c(=O)[nH]c2cc(C#Cc3ccncc3)ccc21)c1ccccc1 [Compound 25]		> 100 µM	> 100 µM	25 ± 6 µM	239 to 241 °C	> 100 µM	> 100 µM	
O=C(Nn1c(=O)c(=O)[nH]c2cc(C#Cc3cncnc3)ccc21)c1ccccc1 [Compound 27]		11 ± 2 µM	12 ± 2 µM	0.28 ± 0.02 µM	318 to 320 °C	> 100 µM	> 100 µM	0.6 µM
O=C(Nn1c(=O)c(=O)[nH]c2cc(C#Cc3ccc4[nH]ncc4n3)ccc21)c1ccccc1 [Compound 29]		0.15 ± 0.05 µM	0.091 ± 0.015 µM	0.13 ± 0.03 µM		3.8 ± 0.1 µM	0.23 ± 0.02 µM	2.2 µM
NS(=O)(=O)c1cccc2c1c([N+](=O)[O-])cc1nc(O)c(O)nc12 [NBQX, reference compound]			5.4 ± 1.2 µM			152 ± 23 µM		
